Assay results published in publication PMC5715147, “Albumin/vaccine nanocomplexes that assemble in vivo for combination cancer immunotherapy” (Nature Communications, 2017).

Legend:
[1] = rhesus monkey, in vivo; cited from earlier work
Excerpt: Here we took a clinically oriented perspective to develop AlbiVax by first repurposing a clinically practiced EB that binds to albumin at binding site I[33], and then conjugating molecular vaccines with an EB derivative. The resulting albumin/AlbiVax nanocomplexes that assemble in vivo were efficiently delivered to LNs and induced potent and durable anti-cancer immunity. EB and derivatives have been developed for preclinical and clinical LN identification[34]–[39]. They have excellent clinical safety profiles[36],[39], and rhesus monkeys survived 25 mg kg^−1 systemically injected EB[40], a dos ... || Safe and robust T cell vaccines would hold great promise for combination cancer immunotherapy. Locally administered vaccines must provide efficient delivery to LNs for effective antitumor immunomodulation. Nanovaccines are a promising approach for efficient vaccine delivery to LNs, and quite a few have been developed preclinically, yet the clinical translation of these nanoformulas has been hindered by limitations in their safety, suitability for reproducible large-scale manufacturing, and in vivo integrity. We chose albumin, one of the most successful carriers of nanomedicines in the clinic, ...

[2] = PET quantification of vaccine delivery to draining LNs after s.c. injection; type: in vivo, FVB mice; conditions: 64Cu-labeled, s.c. at tail base
Procedure: AlbiVax was radiolabeled with ^64Cu for PET. To label ^64Cu via chelation, a NOTA-functionalized MEB (NMEB) was synthesized and conjugated with vaccines. […] The reaction was shaken for 0.5 h at 37 °C. Thereafter, the radiochemical purity was determined using iTLC plates (Fisher Scientific), developed in 0.1 M citric acid (pH 5).
Female FVB mice (6–8 weeks) were used in all PET imaging studies in naive mice. C57BL/6 mice (6–8 weeks) were used in PET imaging of tumor-bearing mice. Mice were anesthetized using isoflurane/O^2 (2% v v^−1) before injection. Anesthetized mice were injected s.c. at the base of tail with ^64Cu-labeled vaccines (4.44−5.55 MBq/120–150 μCi each mouse) in PBS (100 μL). At indicated time points post injection, mice were scanned on an Inveon DPET scanner (Siemens Medical Solutions, Malvern, PA). PET images were reconstructed without correction for attenuation or scattering using a three-dimensional ordered subsets expectation maximization algorithm. ASI Pro VM^TM software was used for image analysis. Regions of interest (ROI) were drawn on LNs to calculate the %ID/g.

[3] = Biodistribution in resected organs by γ counting; design: species or system FVB mice; conditions: mouse, in vivo, sc
Procedure: The above mice were killed at specified time points. Organs and blood were collected and wet weighed. The collected organs and blood, together with a series of standard solutions, were measured for ^64Cu radioactivity on a gamma counter (Wallac Wizard 1480, PerkinElmer). The radioactivity of organs and blood was converted to calculate the percentages of the injected dose (%ID) in organs of interest and the percentages of the injected dose per gram of tissue (%ID/g).

[4] = human, in vivo; cited from earlier work

Cc1cc(-c2ccc(/N=N/c3ccc4c(S(=O)(=O)O)cc(S(=O)(=O)O)c(N)c4c3O)c(C)c2)ccc1/N=N/c1ccc2c(S(=O)(=O)O)cc(S(=O)(=O)O)c(N)c2c1O [EB, Evans blue]
systemically injected dose survived [1]: 25 mg/kg

CC(C)C[C@H](NC(=O)[C@H](Cc1c[nH]c2ccccc12)NC(=O)[C@@H](NC(=O)[C@H](Cc1ccccc1)NC(=O)[C@H](Cc1ccccc1)NC(=O)[C@H](CC(=O)O)NC(=O)[C@H](Cc1ccc(O)cc1)NC(=O)[C@@H](NC(=O)[C@H](CO)NC(=O)[C@@H](N)CS)C(C)C)C(C)C)C(=O)O [Trp2]
LN delivery (in words) ([2]; PET): no detectable

CpG: CpG1826 (TCCATGACGTTCCTGACGTT), phosphorothioate oligodeoxynucleotide, TLR9 agonist
%ID/g in IN LNs on day 5 [3]: 2.5 ± 1.3 %ID/g | percent injection dose per gram of tissue in IN LNs on day 3 [3]: 8.3 ± 4.7 %ID/g | injection dose (%ID) delivered to inguinal (IN) and axillary (AX) LNs ([2]; 4.4–5.5 Mbq, decay-corrected PET over 3 days, n = 4–8): < 0.3 %ID

albumin
half-life [4]: over 20 days
